# Measurements taken from patent US20090062122A1, “Cotton Growth Regulator” (FMC Corporation, priority 2006, published 2009).
# How the values were obtained:
# Type in all cases: in vivo
# cotton, variety D&PL 555 [1] = test: % desiccation of cotton leaves, field trial
# Method: (§1) The trial was performed on cotton, variety D&PL 555. The formulated test compounds were diluted to the appropriate concentrations with water to which a crop oil concentrate (1% to 2% v/v) or a non-ionic surfactant (0.25% v/v) was added. The application of the test composition as a cotton plant growth regulator was performed using pressurized, over-the-top spray equipment consisting of a research scale boom sprayer. Deposit of the test composition was primarily to the top of the cotton plants, minimizing spray deposition to lower branches, leaves and fruit. The finished spray volume was 10 gallons per acre, with sprayer nozzle design, orientation and nozzle pressures chosen to prevent spray drift. Applications were made at first sign of cotton boll opening and at 15%, 20% and 40% open bolls.
# (§2) The experimental design used randomized plots with 1 to 4 treatment rates of test composition and from 1 to 10 replications depending on the test (sees tables below). The size of each experimental plot was about 15 m^2. Testing was performed in Texas, North Carolina, Mississippi and Georgia.
# (§3) Percent desiccation, percent defoliation, percent terminal control and percent open bolls were evaluated at 7 and 14 days after application (DAA) of the test composition. Inspection of cotton plants for insect control of armyworm larvae was performed at 2 DAA and insect damage to bolls was performed at the time of harvest
# Desiccation refers to leaves or portions of leaves dried to debris following tissue death. […] An evaluation of the condition of leaves in the untreated check plots were observed. Then the test plots were individually evaluated. The percent of all leaves completely or partially desiccated by the test application were recorded, based upon live leaves and leaf debris within the test plot relative to foliage present in the untreated plot.
# (§4) The results, shown as the mean of the indicated number of replications, were compared with results observed in the same trials with an untreated control.
# Bollworm (Heliothis zea) = test: % bolls damaged by bollworm at harvest; settings: 15% open boll application, 0.006 lb ai/a, 1 replicate
# Method: as §1, with “bolls. […]” for “bolls.”
# (§5) Percent desiccation, percent defoliation, percent terminal control and percent open bolls were evaluated at 7 and 14 days after application (DAA) of the test composition. […]
# Bollworm (Heliothis zea) and stinkbug (Euschistus servus) insect control was measured by examining the bolls of 100 cotton plants, 50 cotton plants in two representative locations with in the treatment plot, for injury caused by either bollworms or by stinkbugs. The percent damage was calculated by dividing the number of damaged bolls by the total number of bolls on the plants multiplied by 100. […]
# [2] = system: Fall Armyworms (Spodoptera frugiperda); test: Number of fall armyworms on cotton plants; settings: 15% open boll application; 0.004 lb ai/a; 2 DAA; 3 replicates; insects per plant
# Method: as §1
# The experimental design used randomized plots with 1 to 4 treatment rates of test composition and from 1 to 10 replications depending on the test (sees tables below). […]
# as §5
# The presence of fall armyworms (Spodoptera frugiperda) was determined by examining 20 cotton plants within each of 3 replicates of the treatment plots for fall armyworm. The number of insects per plant was calculated by dividing the total number of insects found by 60. […]
# cotton, variety D&PL 555 [3] = test: % terminal control of cotton plants, field trial
# Method: as §1, §2, §3
# Terminal control refers to crop response to the top-most vertical bud and shoots growth. Percent terminal control estimates the proportion of these upper-most growth structures desiccated per 100 cotton plants. Fifty cotton plants in two representative locations within a treatment plot were chosen to determine percent control. Each terminal of the 50 plants in the 2 locations was evaluated, and the total number desiccated per 100 plants was recorded as percent terminal control.
# as §4
# [4] = 20% open boll application, 0.002 lb ai/a, 14 DAA, 2 replicates
# [5] = 20% open boll application, 0.004 lb ai/a, 14 DAA, 2 replicates
# [6] = 20% open boll application, 0.006 lb ai/a, 14 DAA, 2 replicates
# [7] = 20% open boll application, 0.008 lb ai/a, 14 DAA, 2 replicates
smiles,measurement,setting,value
"CCOC(=O)C(Cl)Cc1cc(-n2nc(C)n(C(F)F)c2=O)c(F)cc1Cl (stereo not shown) [carfentrazone-ethyl, ethyl 2-chloro-3-[2-chloro-5-(4-difluoromethyl-3-methyl-5-oxo-4,5-dihydro-[1,2,4]-triazol-1-yl)-4-fluorophenyl]propionate]",% Desiccation,"cotton, variety D&PL 555 [1]; 15% open boll application, 0.004 lb ai/a, 14 DAA, 10 replicates",29%
same,% Desiccation,"cotton, variety D&PL 555 [1]; 15% open boll application, 0.006 lb ai/a, 14 DAA, 10 replicates",33%
same,% Desiccation,"cotton, variety D&PL 555 [1]; 15% open boll application, 0.008 lb ai/a, 14 DAA, 10 replicates",37%
same,% Desiccation,"cotton, variety D&PL 555 [1]; 15% open boll application, 0.01 lb ai/a, 14 DAA, 10 replicates",38%
same,% Desiccation,"cotton, variety D&PL 555 [1]; 20% open boll application, 0.002 lb ai/a, 7 DAA, 3 replicates",8%
same,% Desiccation,"cotton, variety D&PL 555 [1]; [4]",13%
same,% Desiccation,"cotton, variety D&PL 555 [1]; 20% open boll application, 0.004 lb ai/a, 7 DAA, 3 replicates",17%
same,% Desiccation,"cotton, variety D&PL 555 [1]; [5]",23%
same,% Desiccation,"cotton, variety D&PL 555 [1]; 20% open boll application, 0.006 lb ai/a, 7 DAA, 3 replicates",21%
same,% Desiccation,"cotton, variety D&PL 555 [1]; [6]",22%
same,% Desiccation,"cotton, variety D&PL 555 [1]; 20% open boll application, 0.008 lb ai/a, 7 DAA, 3 replicates",24%
same,% Desiccation,"cotton, variety D&PL 555 [1]; [7]",22%
same,% Desiccation,"cotton, variety D&PL 555 [1]; 40% open boll application, 0.004 lb ai/a, 7 DAA, 1 replicate",6%
same,% Desiccation,"cotton, variety D&PL 555 [1]; 40% open boll application, 0.006 lb ai/a, 7 DAA, 1 replicate",5%
same,% Desiccation,"cotton, variety D&PL 555 [1]; 40% open boll application, 0.008 lb ai/a, 7 DAA, 1 replicate",9%
same,% Desiccation,"cotton, variety D&PL 555 [1]; first open boll application, 0.002 lb ai/a, 7 DAA, 4 replicates",15%
same,% Desiccation,"cotton, variety D&PL 555 [1]; first open boll application, 0.002 lb ai/a, 14 DAA, 4 replicates",18%
same,% Desiccation,"cotton, variety D&PL 555 [1]; first open boll application, 0.004 lb ai/a, 7 DAA, 4 replicates",25%
same,% Desiccation,"cotton, variety D&PL 555 [1]; first open boll application, 0.004 lb ai/a, 14 DAA, 4 replicates",25%
same,% Desiccation,"cotton, variety D&PL 555 [1]; first open boll application, 0.006 lb ai/a, 7 DAA, 4 replicates",28%
same,% Desiccation,"cotton, variety D&PL 555 [1]; first open boll application, 0.006 lb ai/a, 14 DAA, 4 replicates",28%
same,% Desiccation,"cotton, variety D&PL 555 [1]; first open boll application, 0.008 lb ai/a, 7 DAA, 4 replicates",33%
same,% Desiccation,"cotton, variety D&PL 555 [1]; first open boll application, 0.008 lb ai/a, 14 DAA, 4 replicates",32%
same,% Bolls Damaged by Bollworm (Heliothis zea),Bollworm (Heliothis zea),1.75%
same,"Number of insects (Fall Armyworms, Spodoptera frugiperda)",[2],0
same,% Terminal Control,"cotton, variety D&PL 555 [3]; 15% open boll application, 0.004 lb ai/a, 14 DAA, 9 replicates",63%
same,% Terminal Control,"cotton, variety D&PL 555 [3]; 15% open boll application, 0.006 lb ai/a, 14 DAA, 9 replicates",74%
same,% Terminal Control,"cotton, variety D&PL 555 [3]; 15% open boll application, 0.008 lb ai/a, 14 DAA, 9 replicates",79%
same,% Terminal Control,"cotton, variety D&PL 555 [3]; 15% open boll application, 0.01 lb ai/a, 14 DAA, 9 replicates",82%
same,% Terminal Control,"cotton, variety D&PL 555 [3]; 20% open boll application, 0.002 lb ai/a, 7 DAA, 2 replicates",50%
same,% Terminal Control,"cotton, variety D&PL 555 [3]; [4]",49%
same,% Terminal Control,"cotton, variety D&PL 555 [3]; 20% open boll application, 0.004 lb ai/a, 7 DAA, 2 replicates",67%
same,% Terminal Control,"cotton, variety D&PL 555 [3]; [5]",64%
same,% Terminal Control,"cotton, variety D&PL 555 [3]; 20% open boll application, 0.006 lb ai/a, 7 DAA, 2 replicates",66%
same,% Terminal Control,"cotton, variety D&PL 555 [3]; [6]",64%
same,% Terminal Control,"cotton, variety D&PL 555 [3]; 20% open boll application, 0.008 lb ai/a, 7 DAA, 2 replicates",60%
same,% Terminal Control,"cotton, variety D&PL 555 [3]; [7]",63%
same,% Terminal Control,"cotton, variety D&PL 555 [3]; first open boll application, 0.002 lb ai/a, 7 DAA, 3 replicates",27%
same,% Terminal Control,"cotton, variety D&PL 555 [3]; first open boll application, 0.002 lb ai/a, 14 DAA, 3 replicates",44%
same,% Terminal Control,"cotton, variety D&PL 555 [3]; first open boll application, 0.004 lb ai/a, 7 DAA, 3 replicates",46%
